Measurements taken from patent publication EP1589016A1, “Thio-substituted tricyclic and bicyclic aromatic methanesulfinyl derivatives” (CEPHALON FRANCE, priority 2004, dated 2005).

Test system: Rats
Assay: Evaluation of Wake Promoting Activity in Rats (EEG/EMG sleep/wake scoring)
Type: in vivo, Wistar rats
Details: i.p. route, 100 mg/kg; for Mean AUC 0-3h, Test compound: n = 4 rats per test compound, group mean, compared with vehicle group (8 rats); for wakefulness compared to the vehicle-treated control groups: rats, p< 0.05 versus vehicle
Description: The methodology utilized for evaluating wake promoting activity of test compounds is based on that described by Edgar and Seidel, Journal of Pharmacology and Experimental Therapeutics, 283:757-769, 1997, and incorporated herein in its entirety by reference.
Animal Surgery. Adult, male Wistar rats (275-320g from Charles River Laboratories, Wilmington, MA) were anesthetized (Nembutal, 45 mg/kg, ip.) and surgically prepared with implants for recording of chronic EEG (encephalographic) and EMG (electromyographic) recording. The EEG implants were made from commercially available components (Plastics One, Roanoke, VA). EEG signals were recorded from stainless steel screw electrodes: 2 frontal (+3.0 mm AP from bregma, ±2.0 mm ML), and 2 occipital (-4.0 mm AP from bregma, ±2.0 mm ML). Two Teflon-coated stainless steel wires were positioned under the nuchal trapezoid muscles for EMG recording. All electrode leads were inserted into a connector pedestal and the pedestal affixed to the skull by application dental acrylic. Antibiotic was administered post surgically and antibiotic cream was applied to the wound edges to prevent infection. At least one week elapsed between surgery and recording.
Recording environment. Postsurgically, rats were housed in pairs in an isolated room. Food and water were available ad libitum, ambient temperature was 21°C, and humidity was 55%. At least 24 hrs prior to recording, they were placed in Nalgene containers (31 x 31 x 31 cm) with a wire-grid top, and entry to the room was prohibited during the day of recording except for dosing. The containers were placed on a rack with two shelves, 4 containers per shelf. Fluorescent overhead room lights were set to a 24 hr. light/dark cycle (on at 7 AM, off at 7 PM). Light levels inside the containers were 38 and 25 lux for the top and bottom shelves respectively. Background white-noise (68db inside the containers) was present in the room to mask ambient sounds.
Data acquisition. EEG and EMG signals were led via cables to a commutator (Plastics One) and then to pre-amplifiers (model 1700, A-M Systems, Carlsborg, WA). EEG and EMG signals were amplified (10K and 1K respectively) and bandpass filtered between 0.3 and 500 Hz for EEG and between 10 and 500 Hz for EMG. These signals were digitized at 128 samples per second using ICELUS sleep research software (M. Opp, U. Texas; see Opp, Physiology and Behavior 63:67-74, 1998, and Imeri, Mancia, and Opp, Neuroscience 92:745-749, 1999, incorporated by reference herein in their entirety) running under Labview 5.1 software and data acquisition hardware (PCI-MIO-16E-4; National Instruments, Austin, TX). On the day of dosing, data was recorded for 6 to 10 hours beginning at 11 AM.
Drug administration and study design. Compounds were evaluated on groups of from 4 to 8 rats carried out over one or two separate test sessions. Each animal was tested with a different compound or vehicle for up to 10 weeks with at least 7 days between successive tests. A vehicle group was included in all experiments, and each animal received vehicle every 4th test. Test compounds were suspended in sterile 0.25% methylcellulose (pH=6.2; Upjohn Co., Kalamazoo, MI) at […]. Although compounds can be administered at dosages greater than 100 mg/kg and are expected to be active under the selection criteria of data analysis, unless otherwise noted, compounds were administered at a single dose of 100 mg/kg. Dosing was carried out at noon, while the rats were predominantly asleep. Each rat was lifted out of its container, given an intraperitoneal injection in a volume of 5 mL/kg, and replaced. Dosing required approximately 30 sec per rat.
Sleep / wake scoring. Sleep and wake activity were determined manually using ICELUS software. […]

Compound	Mean AUC 0-3h, Test compound	wakefulness compared to the vehicle-treated control groups
CC(C)(C)OC(=O)N1CCN(C(=O)CSCc2ccc3oc4ccc(F)cc4c3c2)CC1 [Example 26, 4-[2-(8-fluorodibenzofuran-2-yl-methylsulfanyl)acetyl]-piperazine-1-carboxylic acid tret-butyl ester]	132.0 % of waiking time x hr	significantly greated wakefulness
O=C(C[S+]([O-])Cc1cccc2c1oc1ccccc12)N1CCNCC1 (stereo not drawn) [Example 99]	129.1 % of waiking time x hr	significantly greated wakefulness
O=C(C[S+]([O-])Cc1cccc2c1-c1ccccc1C2)N1CCNCC1 (stereo not drawn) [Example 130]	149.2 % of waiking time x hr	significantly greated wakefulness
